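Five concentrations, 48 hours, 96-well plates. GI50: concentration for 50% inhibition of growth.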 Activity calls are given as the source filed them. Rule as the data show it: active = GI50 up to about 1.1 µM and inactive = higher.
Key:
Experiment in all cases: NCI tumour cell line growth inhibition, 48 h
OVCAR-3 = system: OVCAR-3
786-0 = system: 786-0
K562 = system: K562
TK-10 = system: TK-10
BT-549 = system: BT-549
MCF7 = system: MCF7
A549 = system: A549
HOP-92 = system: HOP-92
SF-268 = system: SF-268
SK-MEL-2 = system: SK-MEL-2
NCI-H460 = system: NCI-H460
MDA-MB-231 = system: MDA-MB-231
Hs-578T = system: Hs-578T
T47D = system: T47D
UACC-257 = system: UACC-257
ACHN = system: ACHN
HCC 2998 = system: HCC 2998
HL-60 = system: HL-60
RXF 393 = system: RXF 393

| Structure (SMILES) | GI50 (OVCAR-3) | GI50 (786-0) | GI50 (K562) | GI50 (TK-10) | GI50 (BT-549) | GI50 (MCF7) | GI50 (A549) | GI50 (HOP-92) | GI50 (SF-268) | GI50 (SK-MEL-2) | GI50 (NCI-H460) | GI50 (MDA-MB-231) | GI50 (Hs-578T) | GI50 (T47D) | GI50 (UACC-257) | GI50 (ACHN) | GI50 (HCC 2998) | GI50 (HL-60) | GI50 (RXF 393) |
| --- | --- | --- | --- | --- | --- | --- | --- | --- | --- | --- | --- | --- | --- | --- | --- | --- | --- | --- | --- |
| COC(=O)/C=C/c1cc(OC)c2oc(-c3ccc(OC)c(OC)c3)c(C(=O)OC)c2c1 | > 100 µM (inactive) | > 100 µM (inactive) | > 100 µM (inactive) | > 100 µM (inactive) | > 100 µM (inactive) | > 100 µM (inactive) | > 100 µM (inactive) | > 100 µM (inactive) | > 100 µM (inactive) | > 100 µM (inactive) | > 100 µM (inactive) | > 100 µM (inactive) | > 100 µM (inactive) | > 100 µM (inactive) | > 100 µM (inactive) | > 100 µM (inactive) | > 100 µM (inactive) | > 100 µM (inactive) | – |
| Cn1c(=O)c2nc(/N=N/Nc3nncs3)[nH]c2n(C)c1=O | > 100 µM (inactive) | > 100 µM (inactive) | > 100 µM (inactive) | > 100 µM (inactive) | > 100 µM (inactive) | > 100 µM (inactive) | > 100 µM (inactive) | > 100 µM (inactive) | > 100 µM (inactive) | > 100 µM (inactive) | > 100 µM (inactive) | > 100 µM (inactive) | > 100 µM (inactive) | > 100 µM (inactive) | > 100 µM (inactive) | > 100 µM (inactive) | > 100 µM (inactive) | – | > 100 µM (inactive) |
| CC(=O)n1nc(-c2[nH]c(C)c(-c3nn(C(C)=O)c(=S)o3)c2C)oc1=S | > 100 µM (inactive) | 97.7 µM (inactive) | > 100 µM (inactive) | > 100 µM (inactive) | > 100 µM (inactive) | > 100 µM (inactive) | > 100 µM (inactive) | > 100 µM (inactive) | > 100 µM (inactive) | > 62.4 µM (inactive) | > 100 µM (inactive) | > 100 µM (inactive) | > 100 µM (inactive) | > 100 µM (inactive) | > 100 µM (inactive) | > 100 µM (inactive) | > 100 µM (inactive) | – | > 100 µM (inactive) |
| CCOC(=O)c1c(NC(=O)c2cccs2)sc2c1CCC2 | > 100 µM (inactive) | > 100 µM (inactive) | > 100 µM (inactive) | > 100 µM (inactive) | > 100 µM (inactive) | > 100 µM (inactive) | > 100 µM (inactive) | – | > 100 µM (inactive) | > 100 µM (inactive) | > 100 µM (inactive) | > 100 µM (inactive) | > 100 µM (inactive) | > 100 µM (inactive) | > 100 µM (inactive) | > 100 µM (inactive) | – | > 100 µM (inactive) | > 100 µM (inactive) |
| COc1cccc(-c2cc(O)c3cc(N4CCOCC4)ccc3n2)c1 | 0.0201 µM (active) | 0.0411 µM (active) | 0.0212 µM (active) | 4.26 µM (inactive) | 0.964 µM (active) | 0.0484 µM (active) | 0.113 µM (active) | 0.0376 µM (active) | 0.0552 µM (active) | 0.0313 µM (active) | 0.177 µM (active) | 0.13 µM (active) | 0.0184 µM (active) | > 10 µM (inactive) | 0.0559 µM (active) | 0.0524 µM (active) | 0.0656 µM (active) | 0.0194 µM (active) | – |
| CCOC(=O)c1nnn(CCCCO)c1C(=O)OCC | – | > 100 µM (inactive) | – | > 100 µM (inactive) | > 100 µM (inactive) | > 100 µM (inactive) | > 100 µM (inactive) | > 100 µM (inactive) | > 100 µM (inactive) | > 100 µM (inactive) | > 100 µM (inactive) | > 100 µM (inactive) | > 100 µM (inactive) | > 100 µM (inactive) | > 100 µM (inactive) | > 10 µM (inactive) | > 100 µM (inactive) | – | > 100 µM (inactive) |
| O=Cc1cc2c(cc1-c1c(C=O)ccc3c1OCO3)OCO2 | > 10 µM (inactive) | > 10 µM (inactive) | > 10 µM (inactive) | > 10 µM (inactive) | > 10 µM (inactive) | > 10 µM (inactive) | > 10 µM (inactive) | > 10 µM (inactive) | > 10 µM (inactive) | – | – | > 10 µM (inactive) | > 10 µM (inactive) | > 10 µM (inactive) | > 10 µM (inactive) | > 10 µM (inactive) | > 10 µM (inactive) | > 10 µM (inactive) | – |
| COc1ccc2[nH]c(S(=O)(=O)N3CC(CCl)c4ccc(N)cc43)cc2c1 (configuration not stated) | 0.022 µM (active) | 0.0771 µM (active) | < 0.01 µM (active) | 20.6 µM (inactive) | 6.55 µM (inactive) | 0.0184 µM (active) | 0.146 µM (active) | 13.7 µM (inactive) | 0.0685 µM (active) | – | < 0.0189 µM (active) | 0.239 µM (active) | 0.0953 µM (active) | 34.8 µM (inactive) | 4.14 µM (inactive) | 8.91 µM (inactive) | 2.94 µM (inactive) | < 0.01 µM (active) | 0.675 µM (active) |
| C[C@@H]1CC[C@H]2C(C)(C)[C@H]3C[C@@]12CC[C@@]3(C)O [CEDROL] | > 100 µM (inactive) | 34.3 µM (inactive) | 92 µM (inactive) | > 100 µM (inactive) | > 100 µM (inactive) | > 100 µM (inactive) | 42.7 µM (inactive) | 72.6 µM (inactive) | > 100 µM (inactive) | > 100 µM (inactive) | 18.2 µM (inactive) | > 100 µM (inactive) | > 100 µM (inactive) | > 100 µM (inactive) | > 100 µM (inactive) | > 100 µM (inactive) | 52.2 µM (inactive) | 18.7 µM (inactive) | – |
| O=C1CC(=O)NC(NN2C(=O)CSC2c2ccc(Cl)c(Cl)c2)=N1 (configuration not stated) | > 100 µM (inactive) | > 100 µM (inactive) | 49.8 µM (inactive) | > 100 µM (inactive) | > 100 µM (inactive) | > 100 µM (inactive) | > 100 µM (inactive) | > 100 µM (inactive) | > 100 µM (inactive) | > 100 µM (inactive) | > 100 µM (inactive) | > 100 µM (inactive) | > 100 µM (inactive) | > 100 µM (inactive) | > 100 µM (inactive) | > 100 µM (inactive) | > 100 µM (inactive) | – | > 100 µM (inactive) |
| Cc1c(NC(=O)CSC(=S)N2CCN(Cc3ccccc3)CC2)c(=O)n(-c2ccccc2)n1C | > 100 µM (inactive) | > 100 µM (inactive) | > 100 µM (inactive) | > 100 µM (inactive) | > 100 µM (inactive) | > 100 µM (inactive) | > 100 µM (inactive) | – | > 100 µM (inactive) | > 100 µM (inactive) | > 100 µM (inactive) | > 100 µM (inactive) | > 100 µM (inactive) | > 100 µM (inactive) | > 100 µM (inactive) | > 100 µM (inactive) | 28.4 µM (inactive) | – | > 100 µM (inactive) |
